How the values were obtained:
Assay type in all cases: functional, cell-based
U-266 = experiment: Cytotoxicity against human U266 cells after 24 hrs by MTT assay; conditions: U-266, 24 h
HL-60 = experiment: Cytotoxicity against human HL60 cells after 24 hrs by MTT assay; conditions: HL-60, 24 h
SGC-7901 = experiment: Cytotoxicity against human SGC7901 cells after 24 hrs by MTT assay; conditions: SGC-7901, 24 h
A549 = experiment: Cytotoxicity against human A549 cells after 24 hrs by MTT assay; conditions: A549, 24 h
[1] = Cytotoxicity against human Bel7404 cells after 24 hrs by MTT assay; conditions: BEL-7404, 24 h
HepG2 = experiment: Cytotoxicity against human HepG2 cells after 24 hrs by MTT assay; conditions: HepG2, 24 h

Compound	IC50 (U-266)	IC50 (HL-60)	IC50 (SGC-7901)	IC50 (A549)	IC50 [1]	IC50 (HepG2)
CC1(C)C[C@@H]2[C@]3(CO[C@@]24CC[C@@H]2[C@@]5(C)CC[C@H](O)[C@@](C)(CO)[C@@H]5CC[C@@]2(C)[C@]4(C)CC3=O)[C@@H](O)C1	> 100 µM	> 100 µM	> 100 µM	> 100 µM	> 100 µM	> 100 µM
CC1(C)C[C@@H]2[C@]3(CO[C@@]24CC[C@@H]2[C@@]5(C)CCC(=O)[C@@](C)(CO)[C@@H]5CC[C@@]2(C)[C@]4(C)CC3=O)[C@@H](O)C1	> 100 µM	> 100 µM	> 100 µM	> 100 µM	> 100 µM	> 100 µM
CC(=O)O[C@H]1CC(C)(C)C[C@@H]2[C@]13CO[C@@]21CC[C@@H]2[C@@]4(C)CC[C@H](O[C@@H]5OC[C@H](O[C@@H]6O[C@H](CO)[C@@H](O)[C@H](O)[C@H]6O)[C@H](O)[C@H]5O[C@@H]5O[C@H](CO)[C@@H](O)[C@H](O)[C@H]5O[C@@H]5OC[C@@H](O)[C@H](O)[C@H]5O)C(C)(C)[C@@H]4CC[C@@]2(C)[C@]1(C)C[C@H]3O	8.83 µM	6.8 µM	7.69 µM	5.28 µM	5.88 µM	4.92 µM
CC1(C)CC[C@]23CO[C@@]4(CC[C@@H]5[C@@]6(C)CC[C@H](O[C@@H]7OC[C@H](O)[C@H](O)[C@H]7O)[C@@](C)(CO)[C@@H]6CC[C@@]5(C)[C@]4(C)CC2=O)[C@@H]3C1 [ANAGALLIGENONE-3-O-ALPHA-L-ARABINOPYRANOSIDE]	94.8 µM	> 100 µM	> 100 µM	85.3 µM	75.5 µM	55.4 µM
CC1(C)CC[C@]23CO[C@@]4(CC[C@@H]5[C@@]6(C)CC[C@H](O[C@@H]7OC[C@H](O[C@@H]8O[C@H](CO)[C@@H](O)[C@H](O)[C@H]8O)[C@H](O)[C@H]7O)[C@@](C)(CO)[C@@H]6CC[C@@]5(C)[C@]4(C)CC2=O)[C@@H]3C1 [ANAGALLIGENONE-3-O-[BETA-D-GLUCOPYRANOSYL(1->4)-ALPHA-L-ARABINOPYRANOSIDE]	13.9 µM	16.3 µM	19 µM	14.6 µM	17.3 µM	16.2 µM
CC1(C)CC[C@]23CO[C@@]4(CC[C@@H]5[C@@]6(C)CC[C@H](O[C@@H]7OC[C@H](O[C@@H]8O[C@H](CO)[C@@H](O)[C@H](O)[C@H]8O[C@@H]8OC[C@@H](O)[C@H](O)[C@H]8O)[C@H](O)[C@H]7O)[C@@](C)(CO)[C@@H]6CC[C@@]5(C)[C@]4(C)CC2=O)[C@@H]3C1 [ANAGALLIGENONE-3-O-[BETA-D-XYLOPYRANOSYL(1->2)-BETA-D-GLUCOPYRANOSYL(1->4)-ALPHA-L-ARABINOPYRANOSIDE]]	10.4 µM	10.3 µM	9.24 µM	10.9 µM	9.14 µM	8.87 µM
